Reference: the supplement of paper PMC6045584
± gives the standard deviation of the averaged measurements.

Experiments:
[1] = compound: O=C(CCCCCCC(=O)Nc1ccccc1)NO [VORINOSTAT]; assay: surviving fraction relative to DMSO-only wells; higher = less growth inhibition; settings: exposure time: 5 days
Summary of the method: (§1)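 Log-phase tumour cell lines were seeded at 250–500 cells per well in 384-well plates. After 24 hours they were exposed continuously for five days to inhibitors at 0.5, 1, 5, 10, 50, 100, 500 and 1000 nM. Viability was read by CellTiter-Glo luminescence after 10 minutes at room temperature, and surviving fraction is luminescence normalised to the median of DMSO-only wells. Each line was screened three times and kept only if replicate Pearson r >0.7 and median Z' >0.3.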

[2] = compound: Cn1c(=O)n(-c2ccc(C(C)(C)C#N)cc2)c2c3cc(-c4cnc5ccccc5c4)ccc3ncc21 [BEZ-235]; assay: as above; settings: exposure time: 5 days
Summary of the method: as §1

Test System	surviving fraction ([1]; 0.5 nM)	surviving fraction ([1]; 1 nM)	surviving fraction ([1]; 5 nM)	surviving fraction ([1]; 10 nM)	surviving fraction ([1]; 50 nM)	surviving fraction ([1]; 100 nM)	surviving fraction ([1]; 500 nM)	surviving fraction ([1]; 1000 nM)	surviving fraction ([2]; 0.5 nM)	surviving fraction ([2]; 1 nM)	surviving fraction ([2]; 5 nM)	surviving fraction ([2]; 10 nM)	surviving fraction ([2]; 50 nM)	surviving fraction ([2]; 100 nM)	surviving fraction ([2]; 500 nM)	surviving fraction ([2]; 1000 nM)
JURKAT HAEMATOPOIETIC AND LYMPHOID TISSUE	1.1 ± 0.026	1.105 ± 0.01	1.09 ± 0.032	1.05 ± 0.02	1.04 ± 0.013	1.01 ± 0.023	0.696 ± 0.037	0.039 ± 0.001	1.05 ± 0.03	1.07 ± 0.032	1.05 ± 0.024	1.05 ± 0.03	0.788 ± 0.021	0.582 ± 0.021	0.211 ± 0.0053	0.056 ± 0.001
HUO3N1 BONE	1.03 ± 0.016	0.975 ± 0.051	0.988 ± 0.027	0.964 ± 0.032	1.012 ± 0.0098	1.06 ± 0.081	0.987 ± 0.032	0.559 ± 0.011	0.992 ± 0.041	1.04 ± 0.042	0.946 ± 0.025	0.994 ± 0.039	0.838 ± 0.071	0.631 ± 0.031	0.341 ± 0.0053	0.258 ± 0.0061
HCC1395 BREAST	1.1 ± 0.23	1.05 ± 0.16	1.31 ± 0.066	1.11 ± 0.11	1.25 ± 0.11	1.21 ± 0.042	1.03 ± 0.11	0.94 ± 0.1	1.03 ± 0.12	0.967 ± 0.11	1.14 ± 0.095	1.09 ± 0.037	0.988 ± 0.12	1 ± 0.13	0.788 ± 0.12	0.759 ± 0.17
ZR751 BREAST	1.22 ± 0.18	1.23 ± 0.18	1.16 ± 0.12	1.08 ± 0.2	1.37 ± 0.13	1.4 ± 0.19	1.23 ± 0.16	1.04 ± 0.17	1.03 ± 0.1	1.03 ± 0.23	0.912 ± 0.12	0.907 ± 0.093	0.725 ± 0.063	0.519 ± 0.1	0.226 ± 0.011	0.176 ± 0.011
SNU475 LIVER	0.9603 ± 0.0081	0.944 ± 0.021	0.966 ± 0.028	0.831 ± 0.037	0.968 ± 0.027	0.941 ± 0.026	0.817 ± 0.018	0.556 ± 0.024	1.03 ± 0.038	1 ± 0.07	0.921 ± 0.036	0.932 ± 0.039	0.423 ± 0.018	0.285 ± 0.0051	0.137 ± 0.015	0.148 ± 0.0081
SKBR3 BREAST	1 ± 0.11	0.996 ± 0.15	0.85 ± 0.03	0.915 ± 0.17	0.98 ± 0.13	1.02 ± 0.15	0.433 ± 0.046	0.179 ± 0.046	1.07 ± 0.18	0.925 ± 0.035	0.88 ± 0.046	1.07 ± 0.018	0.786 ± 0.097	0.564 ± 0.039	0.141 ± 0.014	0.116 ± 0.0092
SCC36 HEADNECK	1.01 ± 0.084	0.977 ± 0.073	1.1 ± 0.024	1.06 ± 0.082	1.12 ± 0.1	1.14 ± 0.12	0.677 ± 0.038	0.589 ± 0.054	1 ± 0.15	1.05 ± 0.043	1.12 ± 0.048	1.16 ± 0.074	1.11 ± 0.08	0.966 ± 0.08	0.497 ± 0.022	0.352 ± 0.015
CAL72 BONE	1.02 ± 0.056	1.09 ± 0.022	1.08 ± 0.02	1.07 ± 0.026	1.08 ± 0.029	1.07 ± 0.018	1.05 ± 0.022	1.06 ± 0.042	1.05 ± 0.026	1.06 ± 0.041	1.07 ± 0.043	1.03 ± 0.041	0.754 ± 0.053	0.369 ± 0.021	0.142 ± 0.011	0.124 ± 0.0079
LNCAP PROSTATE	1.11 ± 0.14	0.952 ± 0.22	0.842 ± 0.19	0.861 ± 0.053	0.904 ± 0.15	0.784 ± 0.042	0.361 ± 0.055	0.159 ± 0.016	0.998 ± 0.11	0.934 ± 0.06	0.887 ± 0.14	0.9 ± 0.12	0.405 ± 0.016	0.255 ± 0.039	0.087 ± 0.014	0.0853 ± 0.011
A549 LUNG	0.961 ± 0.026	0.9313 ± 0.009	0.923 ± 0.062	0.919 ± 0.042	1.04 ± 0.019	1.02 ± 0.061	1.18 ± 0.027	1.116 ± 0.006	0.997 ± 0.054	1.01 ± 0.052	1.01 ± 0.074	1.01 ± 0.083	1.03 ± 0.033	0.66 ± 0.022	0.26 ± 0.022	0.221 ± 0.0093
SCC90 HEADNECK	1.13 ± 0.3	0.999 ± 0.1	1.13 ± 0.19	1.03 ± 0.1	1 ± 0.046	0.89 ± 0.089	0.689 ± 0.012	0.547 ± 0.0096	1.12 ± 0.06	1.12 ± 0.14	1.11 ± 0.018	1.03 ± 0.036	0.912 ± 0.066	0.722 ± 0.079	0.376 ± 0.014	0.288 ± 0.0071
SUM44 BREAST	0.934 ± 0.025	0.954 ± 0.037	0.951 ± 0.0099	1.01 ± 0.086	1.07 ± 0.016	0.917 ± 0.038	0.418 ± 0.031	0.294 ± 0.013	1.03 ± 0.046	1.02 ± 0.067	1.04 ± 0.025	0.972 ± 0.021	0.724 ± 0.026	0.422 ± 0.072	0.104 ± 0.0081	0.099 ± 0.017
MHM BONE	0.928 ± 0.025	0.9847 ± 0.0087	1.01 ± 0.028	0.981 ± 0.019	1.03 ± 0.011	1 ± 0.019	0.985 ± 0.013	0.843 ± 0.025	1.01 ± 0.021	0.995 ± 0.02	1.025 ± 0.0021	1.036 ± 0.0079	0.991 ± 0.018	0.885 ± 0.028	0.427 ± 0.011	0.351 ± 0.016
H23 LUNG	1.04 ± 0.048	0.983 ± 0.034	1.04 ± 0.036	1 ± 0.0087	1.18 ± 0.034	1.27 ± 0.037	1.44 ± 0.1	1.29 ± 0.062	1.02 ± 0.051	1.04 ± 0.081	0.961 ± 0.057	0.903 ± 0.042	0.496 ± 0.055	0.382 ± 0.033	0.22 ± 0.015	0.194 ± 0.0072
SUM149 BREAST	1.1 ± 0.12	1.03 ± 0.044	1.08 ± 0.047	0.917 ± 0.038	1.06 ± 0.045	1.14 ± 0.016	0.996 ± 0.066	0.71 ± 0.031	1.11 ± 0.11	1.15 ± 0.044	1.04 ± 0.018	1 ± 0.059	0.715 ± 0.04	0.587 ± 0.024	0.153 ± 0.0052	0.108 ± 0.011
MFM223 BREAST	1.05 ± 0.16	1.09 ± 0.047	1.13 ± 0.034	1.04 ± 0.043	1.18 ± 0.028	1.08 ± 0.03	0.738 ± 0.086	0.361 ± 0.029	1.12 ± 0.069	1.13 ± 0.043	1.11 ± 0.06	1.15 ± 0.079	0.932 ± 0.071	0.588 ± 0.018	0.206 ± 0.018	0.179 ± 0.0092
ASKA SYNOVIAL	1.01 ± 0.033	1.03 ± 0.038	1.08 ± 0.045	0.951 ± 0.022	1.05 ± 0.015	1.01 ± 0.018	0.724 ± 0.024	0.525 ± 0.028	1.06 ± 0.03	0.994 ± 0.023	0.896 ± 0.032	0.9767 ± 0.0031	0.775 ± 0.046	0.652 ± 0.016	0.418 ± 0.02	0.436 ± 0.019
HSSYII SYNOVIAL	0.913 ± 0.023	0.87 ± 0.025	0.927 ± 0.044	0.873 ± 0.016	1.06 ± 0.25	0.858 ± 0.066	0.436 ± 0.012	0.201 ± 0.011	0.963 ± 0.072	0.921 ± 0.062	0.933 ± 0.012	0.88 ± 0.032	0.548 ± 0.017	0.38 ± 0.0082	0.165 ± 0.0072	0.129 ± 0.013
HT1080 SOFT TISSUE	1.02 ± 0.046	1.02 ± 0.015	1.05 ± 0.039	1.02 ± 0.034	0.951 ± 0.028	0.914 ± 0.017	0.671 ± 0.048	0.418 ± 0.029	0.985 ± 0.022	1.03 ± 0.011	1 ± 0.025	0.996 ± 0.055	0.6683 ± 0.0059	0.496 ± 0.021	0.221 ± 0.01	0.162 ± 0.0061
CHLA90 AUTONOMIC GANGLIA	0.971 ± 0.026	1.08 ± 0.046	0.976 ± 0.013	0.839 ± 0.047	1.02 ± 0.052	0.982 ± 0.063	0.977 ± 0.022	0.844 ± 0.053	0.983 ± 0.078	1 ± 0.033	0.979 ± 0.057	0.947 ± 0.05	0.644 ± 0.046	0.428 ± 0.024	0.175 ± 0.0087	0.106 ± 0.0023
JIMT1 BREAST	0.924 ± 0.0097	0.995 ± 0.017	1.01 ± 0.037	0.986 ± 0.013	1.07 ± 0.027	1.006 ± 0.01	0.686 ± 0.01	0.448 ± 0.037	1.03 ± 0.031	0.992 ± 0.024	0.983 ± 0.0095	0.992 ± 0.019	0.732 ± 0.03	0.464 ± 0.04	0.21 ± 0.013	0.194 ± 0.009
